Results: patent US20230277508A1, “USE OF COMPOUND AS CYP2E1 INHIBITOR” (SHANGHAI LING XI BIOTECHNOLOGY DEVELOPMENT CO., LTD., priority 2020, published 2023)

Tests used:
[1] = tested on: B16-F10 cell lung metastasis; assay: Lung metastasis model, tail vein injection of melanoma cell B16-F10; assay type: in vivo, C57BL/6 mouse; details: SMI0 30 mg/kg, 14 days
Protocol: Experimental method: A female C57BL/6 mouse lung metastasis model was constructed through tail vein injection of a melanoma cell B16-F10, with a cell amount of 8*10^5. Mice were divided into a control group, a model group, and an SMI0 intervention group, and the modeling took 14 days (control group, n=5; model group, n=5; and SMI0 (30 mg/kg), n=4). At the end of the experiment, a body weight of mice in each group was recorded, blood was collected from the orbit, the mice were sacrificed, and lung tissues were collected and weighed. The lung tissues were fixed in a formalin solution for 24 h, and a number of lung nodules of mice in each group was recorded.

[2] = tested on: LPS-induced acute lung injury (ALI) in mice; assay: LPS-induced mouse lung injury; assay type: in vivo, C57BL/6N mouse
Protocol: Experimental method: A C57BL/6N mouse pulmonary fibrosis model was established through intratracheal instillation with 8 mg/kg LPS. An SMI0 intervention group was divided into a low-dose group and a high-dose group, which were intragastrically administered with the compound SMI0 respectively at 30 mg/kg and 90 mg/kg every day from three days before modeling until 6 h before the end of the modeling (control group, n=8; model group, n=8; and SMI0 compound high-dose group, n=8). At the end of the experiment, a body weight of mice in each group was recorded, blood was collected from the orbit, the mice were sacrificed, and lung tissues were collected and weighed. The left lungs were fixed in 4% formalin and subjected to HE staining.
Experimental method: A neutrophil level in a mouse lung tissue was evaluated through immunohistochemistry (IHC) staining, and an immunostaining-positive area percentage was quantitatively evaluated by Image-Pro Plus software. RNA of a mouse lung tissue was extracted by a kit method, and expression levels of TNF-α and IL-1β in lung tissues of mice were determined by RT-PCR.

[3] = biological target: T1, CYP2E1 (Rattus norvegicus, UniProt P05182); assay: In vivo inhibition of metabolism of DEN by CYP2E1 in rats (toxicokinetics of DEN); set-up: species or system SD rats
T1 construct: from tissue; host or cells: whole animal (SD rats); endogenous enzyme in vivo
T1 sequence (P05182 whole entry): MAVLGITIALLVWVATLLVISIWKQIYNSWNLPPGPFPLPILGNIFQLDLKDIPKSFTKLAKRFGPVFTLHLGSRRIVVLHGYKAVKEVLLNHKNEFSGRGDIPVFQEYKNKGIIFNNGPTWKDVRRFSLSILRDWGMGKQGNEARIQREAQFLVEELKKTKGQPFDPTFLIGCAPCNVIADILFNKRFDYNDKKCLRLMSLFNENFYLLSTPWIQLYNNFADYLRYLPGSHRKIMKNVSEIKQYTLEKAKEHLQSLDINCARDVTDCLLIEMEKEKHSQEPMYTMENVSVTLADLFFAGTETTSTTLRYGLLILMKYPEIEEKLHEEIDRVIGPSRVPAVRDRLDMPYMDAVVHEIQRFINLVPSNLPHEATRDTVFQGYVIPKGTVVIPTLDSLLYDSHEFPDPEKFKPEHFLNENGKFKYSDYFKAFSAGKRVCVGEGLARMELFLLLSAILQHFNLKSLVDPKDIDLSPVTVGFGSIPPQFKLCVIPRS
Protocol: Experimental method: An inhibitory effect of the compound SMI0 on CYP2E1 in rats was investigated by a self-controlled crossover experiment design. In a first round of experiments, DEN alone was intraperitoneally injected at 50 mg/kg (30 SD rats in total) in the first week; after a one-week interval, a second round of experiments were conducted as follows: each rat was first intragastrically administered with the compound SMI0 at a low, medium, or high dose (6 mg/kg, 30 mg/kg, or 150 mg/kg), and 5 min later, each rat was intraperitoneally injected with DEN at 50 mg/kg (10 rats were set for each of low, medium, and high doses); blood was collected at 2 min, 7 min, 15 min, and 30 min and 1 h, 2 h, 4 h, 6 h, 9 h, 12 h, 24 h, 36 h, 48 h, and 60 h; a DEN concentration in plasma was determined at different blood collection time points, and a toxicokinetic parameter of DEN was calculated; and plasma DEN was detected by high performance liquid chromatography (HPLC) as follows: 100 μL of plasma was added to 10 μL of perchloric acid, a resulting mixture was vortexed for 3 min and then centrifuged at 12,000 rpm for 10 min, and 10 μL of a resulting supernatant was collected and injected into an instrument, where the PLC was conducted with methanol:water=50:50 as a mobile phase and a detection wavelength of 240 nm.

[4] = tested on: DEN-induced liver fibrosis in rats; assay: DEN-induced rat liver fibrosis model; assay type: in vivo, SD rat; details: 12 weeks, vs model group
Protocol: Experimental method: An SD rat liver damage model was constructed through intermittent intraperitoneal injection of DEN. A model group was injected intraperitoneally with DEN at 50 mg/kg twice a week in the first 4 weeks and then once a week in the 5th to 12th weeks. An SMI0 intervention group was divided into SMI0+DEN low-dose and high-dose groups and an SMI0 high-dose continuous administration group, where the SMI0+DEN low-dose and high-dose groups were intragastrically administered with the compound SMI0 at 30 mg/kg and 150 mg/kg 5 min before DEN administration each time, respectively; and the SMI0 high-dose continuous administration group was intragastrically administered with the compound SMI0 at 150 mg/kg every day from the 1st week to the 12th week. At the end of molding, blood was collected from the orbit, and plasma liver function indexes of rats were determined by an automatic biochemical analyzer (model group, n=10 rats; SMI0 compound low-dose group, n=21 rats; SMI0 compound+DEN high-dose group, n=28 rats; and SMI0 compound high-dose continuous administration group, n=24 rats).

[5] = biological target: T2, CYP2E1 (Mus musculus, UniProt Q05421); assay: CYP2E1 activity (liver microsome) in in situ transplanted mouse glioma model; assay type: in vivo; details: SMI0 intervention group vs model group, P<0.001
T2 construct: from tissue; host or cells: liver microsomes of treated model mice (calcium precipitation)
T2 sequence (Q05421 whole entry): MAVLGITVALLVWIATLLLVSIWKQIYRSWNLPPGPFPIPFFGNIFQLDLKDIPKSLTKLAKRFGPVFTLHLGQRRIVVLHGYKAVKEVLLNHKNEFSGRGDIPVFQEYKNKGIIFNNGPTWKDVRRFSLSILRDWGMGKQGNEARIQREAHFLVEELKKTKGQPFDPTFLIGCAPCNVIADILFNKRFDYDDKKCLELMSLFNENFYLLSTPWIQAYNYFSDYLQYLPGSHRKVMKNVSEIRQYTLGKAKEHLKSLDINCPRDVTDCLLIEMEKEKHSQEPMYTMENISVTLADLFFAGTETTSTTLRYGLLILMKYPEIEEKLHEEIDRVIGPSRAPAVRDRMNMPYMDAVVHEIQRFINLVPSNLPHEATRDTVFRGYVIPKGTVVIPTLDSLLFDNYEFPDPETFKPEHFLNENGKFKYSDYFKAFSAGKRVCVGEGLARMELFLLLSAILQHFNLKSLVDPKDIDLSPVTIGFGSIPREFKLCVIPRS
Protocol: Experimental method: A calcium precipitation method was used to prepare a mouse liver microsome, and a Braford method was used to determine a protein concentration in the microsome. An incubation system was prepared with 2×PBS, a CZX solution, and the liver microsome at a final concentration of 0.5 mg/mL, and then pre-incubated at 37° C. for 5 min; NADPH was added to initiate a reaction, and a resulting mixture was incubated at 37° C. for 30 min and then placed on ice to terminate the reaction; and ethyl acetate was added to extract 6-hydroxychlorzoxazone, a resulting mixture was vortexed and centrifuged, and a resulting upper organic phase was collected and blow-dried with nitrogen. A peak area of a CZX metabolite 6-hydroxychlorzoxazone was detected by HPLC under the following conditions: methanol:water=56:44, and detection wavelength: 287 nm. A concentration A C of the metabolite 6-hydroxychlorzoxazone was calculated through substitution into a standard curve; and a reaction rate of conversion of CZX into 6-hydroxychlorzoxazone was calculated according to V(pmol/min/mg)=(ΔC*1000)/(B*T) to evaluate an enzymatic activity of CYP2E1, where B represents a protein concentration of the microsome (mg/mL) and T represents an incubation time (min). A correlation between CYP2E1 activity and tumor size in the mouse glioma model was analyzed.

[6] = RT-PCR, SMI0 high-dose group vs model group, P<0.05

CC(=O)c1scnc1C [SMI0]
lung weight ([1]; vs model group): significantly reduced | number of nodules ([1]; vs model group): significantly reduced | tumor proliferation inhibition rate ([1]; as high as): 58.3% | expression level of IL-1β in the lung tissue [2, 6]: significantly reduced | expression level of TNF-α in the lung tissue [2, 6]: significantly reduced | lung injury score ([2]; SMI0 administration group vs model group): significant reduced | MPO immunostaining-positive area percentage in lung tissue ([2]; SMI0 high-dose group vs model group, P<0.05): significantly reduced | lung index ([2]; both SMI0 low-dose (30 mg/kg) and high-dose (90 mg/kg) groups, ig daily, vs model group, P<0.01): significantly reduced | inhibition rate (CL of DEN) ([3]; SMI0 high dose 150 mg/kg ig): 86.77% | inhibition rate (CL of DEN) ([3]; SMI0 low dose 6 mg/kg ig): 62.43% | inhibition rate (CL of DEN) ([3]; SMI0 medium dose 30 mg/kg ig): 80.42% | liver coefficient ([4]; SMI0 intervention group (30, 150 mg/kg before DEN; 150 mg/kg daily)): reduced to varying degrees | Collagen I ([4]; SMI0 intervention group): reduced to varying degrees | liver fibrosis Ishark score ([4]; SMI0 intervention group): reduced to varying degrees | liver fibrosis Masson staining area percentage ([4]; SMI0 intervention group): reduced to varying degrees | α-SMA ([4]; SMI0 intervention group): reduced to varying degrees | CYP2E1 activity [5]: significantly reduced
